Data on 46 compounds can be found in patent US10662189B2, “PDE4 inhibitor” (SHIJIAZHUANG SAGACITY NEW DRUG DEVELOPMENT CO., LTD., priority 2016, dated 2020).

Recombinant human PDE4B, sequence (Q07343 305-736 limits assumed): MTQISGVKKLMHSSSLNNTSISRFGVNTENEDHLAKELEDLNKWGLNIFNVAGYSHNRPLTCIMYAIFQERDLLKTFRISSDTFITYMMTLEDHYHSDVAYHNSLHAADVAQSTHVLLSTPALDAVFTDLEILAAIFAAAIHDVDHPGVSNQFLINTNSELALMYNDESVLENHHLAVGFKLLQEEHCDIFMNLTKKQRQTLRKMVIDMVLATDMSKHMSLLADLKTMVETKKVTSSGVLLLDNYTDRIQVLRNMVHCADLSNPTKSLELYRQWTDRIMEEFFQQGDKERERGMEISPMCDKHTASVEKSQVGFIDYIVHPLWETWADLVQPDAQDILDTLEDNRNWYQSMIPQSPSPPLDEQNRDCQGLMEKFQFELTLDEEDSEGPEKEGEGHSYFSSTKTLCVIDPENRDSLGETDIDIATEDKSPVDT

In the assay the target is Recombinant human PDE4B (Homo sapiens (Human), UniProt Q07343). Nature of the assay: Inhibitory activity against PDE 4B in vitro (fluorescence polarization, Transcreener AMP2/GMP2). The format is biochemical. As to conditions: 1 μM cAMP. The procedure:
Inhibitory activity of the compounds against PDE 4B
The enzyme activity was indicated by measuring the AMP/GMP expression and tracing AMP/GMP antibody binding based on fluorescence polarization in the biological assay.
10 mM Tris-HCl (pH 7.5), 5 mM MgCl2, 0.01% Brij 35, 1 mM DTT and 1% DMSO.
Recombinant human PDE4B (Gen accession number: NM_002600; amino acid 305 end) was expressed by baculovirus in Sf9 insect cells using an N-terminal GST tag. MW=78 kDa.
Transcreener® AMP2/GMP2 antibody and AMP2/GMP2 AlexaFluor633 tracer
i) Recombinant human PDE4B and the enzyme substrate (1 μM cAMP) were dissolved in the newly-prepared buffer solution, respectively.
ii) The PDE4B buffer solution defined as above was transferred into the reaction wells.
iii) The compound which was dissolved in 100% DMSO was added to the reaction wells of the PDE4B buffer solution by ultrasonic oscillator (echo 550; nanoliter range) and incubated at room temperature for 10 minutes.
iv) The enzymatic buffer solution was then added to the reaction wells defined as above to initiate the reaction.
v) The reaction was incubated at room temperature for 1 hour.
vi) The reaction was terminated by adding detecting mixture (Transcreener® AMP2/GMP2 antibody and AMP2/GMP2 AlexaFluor633 tracer) and incubated for 90 minutes with slowly mixing. The measurement range of fluorescence polarization is Ex/Em=620/688.
The fluorescence polarization signal was converted into nM according to the AMP/GMP standard curve and the percent enzyme activity relative to DMSO calculated by Excel. GraphPad Prism was used to plot the curves (Drawing Medicine Icon).
On the technique in general: Polarisation of emitted light reports the rotation of a fluorescent probe.
Regarding `CCOc1cc([C@@H](CS(C)(=O)=O)n2c(=O)[nH]c3cc(-c4cncnc4)cnc32)ccc1OC` [WX027], the IC50 worked out at 19.1 nM.
`CCOc1cc([C@@H](CS(C)(=O)=O)n2c(=O)[nH]c3cc(-c4nccc(C)n4)cnc32)ccc1OC` [WX028]: the IC50 stood at 9.7 nM.
Then `CCOc1cc([C@@H](CS(C)(=O)=O)n2c(=O)[nH]c3cc(-c4cncnc4C)cnc32)ccc1OC` [WX029], with 14.8 nM; and `CCOc1cc([C@@H](CS(C)(=O)=O)n2c(=O)[nH]c3cc(-c4ccccc4CC)cnc32)ccc1OC` [WX030], with 0.515 nM; and `CCOc1cc([C@@H](CS(C)(=O)=O)n2c(=O)[nH]c3cc(-c4ccccc4OCC)cnc32)ccc1OC` [WX031], with 0.861 nM.
As to `CCOc1cc([C@@H](CS(C)(=O)=O)n2c(=O)[nH]c3cc(-c4ccccc4C#N)cnc32)ccc1OC` [WX032], the IC50 was 0.234 nM.
Then `CCOc1cc([C@@H](CS(C)(=O)=O)n2c(=O)[nH]c3cc(-c4c(F)cccc4F)cnc32)ccc1OC` [WX033], with 0.671 nM.
Regarding `CCOc1cc([C@@H](CS(C)(=O)=O)n2c(=O)[nH]c3cc(-c4c(C)ncnc4C)cnc32)ccc1OC` [WX034], the IC50 worked out at 5.18 nM.
On to `CCOc1cc([C@@H](CS(C)(=O)=O)n2c(=O)[nH]c3cc(-c4ccncc4)cnc32)ccc1OC` [WX035], for which the 50% inhibitory concentration (IC50) came to 15.5 nM.
As to `CCOc1cc([C@@H](CS(C)(=O)=O)n2c(=O)[nH]c3cc(-c4cscn4)cnc32)ccc1OC` [WX036], the half-maximal inhibitory concentration (IC50) came to 6.27 nM.
For `CCOc1cc([C@@H](CS(C)(=O)=O)n2c(=O)[nH]c3cc(-c4ncccc4F)cnc32)ccc1OC` [WX037] the value was 10.2 nM.
For `CCOc1cc([C@@H](CS(C)(=O)=O)n2c(=O)[nH]c3cc(-c4nccnc4C)cnc32)ccc1OC` [WX038] the value was 14.5 nM; for `CCOc1cc([C@@H](CS(C)(=O)=O)n2c(=O)[nH]c3cc(-c4nnccc4C)cnc32)ccc1OC` [WX039], 21.7 nM.
`CCOc1cc([C@@H](CS(C)(=O)=O)n2c(=O)[nH]c3cc(C4=CCN(C(=O)OC(C)(C)C)CC4)cnc32)ccc1OC` [WX040]: the IC50 was 10.4 nM.
As to `CCOc1cc([C@@H](CS(C)(=O)=O)n2c(=O)n(C)c3cc(OC)cnc32)ccc1OC` [WX041], the IC50 stood at 16.4 nM.
Then `CCOc1cc([C@@H](CS(C)(=O)=O)n2c(=O)[nH]c3cc(Oc4ncccn4)cnc32)ccc1OC` [WX042], with 5.42 nM; and `CCOc1cc([C@@H](CS(C)(=O)=O)n2c(=O)[nH]c3cc(Oc4ccccc4C(F)(F)F)cnc32)ccc1OC` [WX043], with 2.53 nM; and `CCOc1cc([C@@H](CS(C)(=O)=O)n2c(=O)n(-c3ccccc3)c3cc(Br)cnc32)ccc1OC` [WX044], with 26.6 nM.
`CCOc1cc([C@@H](CS(C)(=O)=O)n2c(=O)n(C3CC3)c3cc(Br)cnc32)ccc1OC` [WX045]: the IC50 is 6.5 nM.
Turning to `CCOc1cc([C@@H](CS(C)(=O)=O)n2c(=O)n(C3CC3)c3cc(-c4ccccc4F)cnc32)ccc1OC` [WX046], the IC50 was 7.79 nM.
For `CCOc1cc([C@@H](CS(C)(=O)=O)n2c(=O)n(CC(F)F)c3cc(Cl)cnc32)ccc1OC` [WX047] the value was 41.6 nM.
Then `CCOc1cc([C@@H](CS(C)(=O)=O)n2c(=O)n(CC(F)(F)F)c3cc(Cl)cnc32)ccc1OC` [WX048], with 19.8 nM; and `CCOc1cc([C@@H](CS(C)(=O)=O)n2c(=O)n(CC(F)F)c3cc(F)cnc32)ccc1OC` [WX049], with 90.7 nM.
As for `CCOc1cc([C@@H](CS(C)(=O)=O)n2c(=O)n(C)c3cc(Br)cnc32)ccc1OC` [WX050], the IC50 amounted to 11 nM.
Then `CCOc1cc([C@@H](CS(C)(=O)=O)n2c(=O)n(CCOC)c3cc(Br)cnc32)ccc1OC` [WX051], with 9.1 nM.
For `CCOc1cc([C@@H](CS(C)(=O)=O)n2c(=O)n(CCS(C)(=O)=O)c3cc(Br)cnc32)ccc1OC` [WX052] the value was 8.2 nM; for `CCOc1cc([C@@H](CS(C)(=O)=O)n2c(=O)n(Cc3ccccc3F)c3cc(Br)cnc32)ccc1OC` [WX053], 1.49 nM; for `CCOc1cc([C@@H](CS(C)(=O)=O)n2c(=O)n(Cc3nccc(C)n3)c3cc(Br)cnc32)ccc1OC` [WX054], 6.9 nM.
As to `CCOc1cc([C@@H](CS(C)(=O)=O)n2c(=O)n(Cc3cncc(C)n3)c3cc(Br)cnc32)ccc1OC` [WX055], the IC50 was determined as 6.99 nM.
For `CCOC(=O)Cn1c(=O)n([C@H](CS(C)(=O)=O)c2ccc(OC)c(OCC)c2)c2ncc(Br)cc21` [WX056] the value was 3.4 nM; for `CCOc1cc([C@@H](CS(C)(=O)=O)n2c(=O)n(CC)c3cc(-c4ccccc4F)cnc32)ccc1OC` [WX058], 1.99 nM; for `CCOc1cc([C@@H](CS(C)(=O)=O)n2c(=O)n(CCO)c3cc(-c4ccccc4F)cnc32)ccc1OC` [WX059], 2.02 nM.
Then `CCOc1cc([C@@H](CS(C)(=O)=O)n2c(=O)n(C(C)C)c3cc(-c4ccccc4F)cnc32)ccc1OC` [WX060], with 3.48 nM; and `CCOc1cc([C@@H](CS(C)(=O)=O)n2c(=O)n(CC#N)c3cc(-c4ccccc4F)cnc32)ccc1OC` [WX061], with 0.989 nM; and `CCOc1cc([C@@H](CS(C)(=O)=O)n2c(=O)n(C3CCC3)c3cc(-c4ccccc4F)cnc32)ccc1OC` [WX062], with 3.5 nM.
Then `CCOc1cc([C@@H](CS(C)(=O)=O)n2c(=O)[nH]c3c(C)c(-c4ccccc4)cnc32)ccc1OC` [WX064], with 2.23 nM.
For the compound `CCOc1cc([C@@H](CS(C)(=O)=O)n2c(=O)[nH]c3c(Cc4ccccc4F)ccnc32)ccc1OC` [WX068], the IC50 was 2.24 nM.
With `CCOc1cc(C(CS(C)(=O)=O)N2C(=O)Cc3cc(Br)cnc32)ccc1OC` (stereo not shown) [WX069], the IC50 was determined as 47.8 nM.
`CCOc1cc(C(CS(C)(=O)=O)n2c(=O)oc3cc(Br)cnc32)ccc1OC` (stereo not shown) [WX070]: the IC50 worked out at 73.8 nM.
Regarding `CCOc1cc(C(CS(C)(=O)=O)n2c(=O)oc3cc(-c4ccccc4F)cnc32)ccc1OC` (stereo not shown) [WX071], the IC50 stood at 0.74 nM.
Consider `CCOc1cc(C(CS(C)(=O)=O)n2c(=O)[nH]c3cc(-c4ccccc4F)cnc32)ccc1OC(F)F` (stereo not shown) [WX073], for which the IC50 was < 0.5 nM.
For `CCOc1cc(C(CS(C)(=O)=O)n2c(=O)[nH]c3cc(-c4ccccc4)cnc32)ccc1OC(F)F` (stereo not shown) [WX074] the value was 1.03 nM; for `CCOc1cc(C(CS(C)(=O)=O)n2c(=O)[nH]c3c(C)c(C)cnc32)ccc1OC(F)F` (stereo not shown) [WX075], 5.39 nM.
As to `CCOc1cc(C(CS(C)(=O)=O)n2c(=O)[nH]c3c(C)c(-c4ccccc4F)cnc32)ccc1OC(F)F` (stereo not shown) [WX076], the IC50 is < 0.5 nM.
As for `CCOc1cc(C(CS(C)(=O)=O)n2c(=O)[nH]c3c(C)c(-c4ccccc4)cnc32)ccc1OC(F)F` (stereo not shown) [WX077], the IC50 worked out at 1.01 nM.
With `CCOc1cc(C(CS(C)(=O)=O)n2c(=O)[nH]c3c(-c4ccccc4)ccnc32)ccc1OC(F)F` (stereo not shown) [WX078], the IC50 was < 0.5 nM.

The term IC50 denotes the concentration that inhibits the measured activity by half.
